Source: patent US11685766B2, “14-3-3 targeting peptides for cancer treatment” (Creighton University, priority 2019, dated 2023)
“Also recorded” adds a separate entry of the source. Peptide text beside a SMILES is read from it.

Legend:
[1] = biological target: T1, 14-3-3ε heterodimerization (Homo sapiens, UniProt P62258); assay: Co-immunoprecipitation / immunoblot of 14-3-3ε heterodimerization; assay type: cell-based; conditions: SCC12B.2 cells, 20 μM, 48 hours, vs vehicle
T1 construct: endogenous in cells; host or cells: SCC12B.2
T1 sequence (P62258 1-255): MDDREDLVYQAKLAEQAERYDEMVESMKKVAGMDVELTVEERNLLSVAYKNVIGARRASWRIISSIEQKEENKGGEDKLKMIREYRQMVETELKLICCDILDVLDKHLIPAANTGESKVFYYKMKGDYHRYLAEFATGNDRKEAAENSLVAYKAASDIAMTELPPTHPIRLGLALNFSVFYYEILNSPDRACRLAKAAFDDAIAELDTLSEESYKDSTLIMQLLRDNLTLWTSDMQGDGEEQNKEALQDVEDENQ
Description: Co-Immunoprecipitation was performed using a Dynabeads Protein G Immunoprecipitation kit (Life Technologies, Carlsbad, Calif., USA). Beads were coupled to antibodies targeting 14-3-3ε (Fisher Scientific, Waltham, Mass., USA) or Akt (Thermo Fisher) at a ratio of 7 μg of antibody for every 1 mg of beads according to the manufacturers protocol. SCC12B.2 cells were treated with vehicle (20 mM Tris buffer, pH 7.5) or fresh ES1P2 targeting peptide daily at the IC50 concentration for 48 hours in Opti-MEM I Reduced Serum Medium (Invitrogen) and collected by trypsinization. […]
Protein was collected by either standard whole-cell lysis using ice-cold radioimmunoprecipitation assay (RIPA) lysis buffer supplemented with protease (Roche Life Scientific) and phosphatase inhibitors (NaF, Na3VO4) or by nuclear/cytosolic extraction using the NE-PER Nuclear and Cytoplasmic Protein Extraction Reagent Kit according to the manufacturer's protocol (Pierce, Rockford, Ill., USA). […] Protein concentration was assessed with the Bradford assay. […] Bands were detected using horseradish peroxidase-conjugated secondary antibodies (IgG mouse or rabbit) (Cell Signaling) and visualized using western lightning plus chemiluminescent reagent (MidSci, Valley Park, Mo., USA) and signal read on a Chemidoc XRS Molecular Imager (Bio-Rad Laboratories, Hercules, Calif., USA).

[2] = system: normal human epidermal keratinocytes (nHEK); assay: Neutral Red Cell Viability assay in normal keratinocytes; assay type: cell-based; conditions: FIG. 1A dashed line
Description: Human skin cancer cell lines (SCC12B.2, SCC13, SRB12) were maintained in Dulbecco's modified Eagle's medium (DMEM) (Invitrogen, Carlsbad, Calif., USA) supplemented with 1% penicillin (10 000 U/ml)-streptomycin (10 000 μg/ml) (PenStrep) (Invitrogen) and 10% fetal bovine serum (Gemini Bio-Products, Sacramento, Calif., USA) at 37° C. and 5% CO2. Normal human epidermal keratinocytes (nHEK) (Thermo Scientific, Waltham, Mass., USA) isolated from neonatal foreskin were cultured in EpiLife medium (Invitrogen) supplemented with human keratinocyte growth supplement (Invitrogen) and 1% PenStrep (Invitrogen). […]
To determine the half maximal inhibitory concentration (IC50) for ES1P2 in SCC12B.2 and nHEK cells, cells were plated in a 96-well plate at a density of 6×10^3 cells/well. […] Neutral Red Cell Viability assays were performed, where absorbance was measured using a Cytation 5 multi-mode plate reader (BioTek). […]

For `NCCCC[C@H](NC(=O)[C@H](Cc1c[nH]c2ccccc12)NC(=O)[C@H](Cc1ccc(O)cc1)NC(=O)[C@@H](N)Cc1c[nH]c2ccccc12)C(N)=O` [ES1P2, Trp-Tyr-Trp-Lys-NH2] (H-WYWK-NH2), the 14-3-3ε heterodimerization [1] was “reduces 14-3 3ε heterodimerization” and the “toxicity to normal keratinocytes” value [2] was “killed SCC cells but not normal keratinocytes; also recorded: nontoxic”.
